{
  "source": "patent US9409983B2",
  "about": "“Methods and compositions involving PBEF inhibitors for lung inflammation conditions and diseases” (The Board of Trustess of the University of Illinois, priority 2009, dated 2016)",
  "key": {"[1]": {"test_system": "RENCA cells", "conditions": "cited from earlier work"}, "[2]": {"test_system": "human PBEF", "test": "In vitro PBEF silencing with siRNAs", "format": "cell-based", "from_the_text": "In vitro human PBEF stealth siRNAs were designed based on the human PBEF cDNA reference sequence (NM_005746.1) using the BLOCK-iTi RNAi Designer (Invitrogen, Carlsbad, Calif.). The siRNA sequence 1 (as reported in Ye et al. 2005 MVR w/@75% silencing) was custom synthesized from Invitrogen (cat#10620312_40993403, NM_005746); (5′-[…]-3′ SEQ ID NO:4) and scrambled controls (cat#10620312_40993404).\nAlternatively, small interfering RNA (siRNA) targeting human PBEF1 (NM_005746) was purchased as 4 ON-TARGETplus SMARTpool siRNA duplexes (catalog#L-004581-00) from Dharmacon (Lafayette, Colo.)."}, "[3]": {"test_system": "human PBEF", "conditions": "as reported in Ye et al. 2005; cited from earlier work"}, "[4]": {"test_system": "rat peritoneal neutrophils", "test": "Transmigration and chemotaxis assay (Transwell)", "format": "cell-based", "conditions": "rhPBEF (10 ng/ul) or casein in lower chamber, up to 4 hours", "protocol": "Chemotaxis of rat peritoneal neutrophils (calcein-AM) across 3 μm polycarbonate filters was assessed in response to recombinant human PBEF/visfatin (rhPBEF, PeproTech, Rocky Hill, N.J.), or casein (positive control). (See Supplemental Methods for additional details).\nNeutrophils were collected from retired breeder male Harlan-Sprague Dawley rats by intraperitoneal injection of 2.5% casein (5 ml). The resulting peritoneal fluid was recovered by PBS peritoneal lavage after 18 hr, centrifuged and examined for total cell counts and cell differentiation. For chemotaxis assays, leukocytes were exposed to calcein-AM in the presence of plurionic acid for 1 hr at room temperature. The temperature was then elevated to 37° C. for 30 min to cleave the calcein AM thereby reducing the rate of calcein diffusion out of the cells. […] The receiving wells were assessed serially in a fluorescent plate reader with absorption at 494 nm and emission measured at 517 nm. Fluorescence was recorded at 5, 10, 15, 30 min and each subsequent 30 min period for up to 4 hr. Aliquots of known numbers of neutrophils were counted in separate wells at each time point to account for any quenching of the fluorescence over time."}},
  "data": [
    {"compound": "O=C(/C=C/c1cccnc1)NCCCCC1CCN(C(=O)c2ccccc2)CC1", "note": "[FK-866]", "values": [
      {"measurement": "toxicity compared with TNP-470 treatment", "setting": "[1]; doses of up to 6 mg/kg FK-866, TNP 470 30 mg/kg subcutaneously every other day", "value": "less toxic than treatment with TNP-470"},
      {"measurement": "doses with significant antitumor efficacy", "setting": "[1]; oral, twice daily, days 14 to 19 after tumor cell inoculation", "value": "≥ 10", "unit": "mg/kg"}
    ]},
    {"compound": "Invitrogen siRNA: human PBEF stealth siRNA, single sequence, custom synthesized from Invitrogen; 5′-CCACCCAACACAAGCAAAGUUUAUU-3′ SEQ ID NO:4 (Stealth siRNA from Invitrogen, modification pattern not given here)", "values": [
      {"measurement": "downregulating PBEF protein expression", "setting": "[2]", "value": "effective"},
      {"measurement": "PBEF silencing", "setting": "[3]", "value": 75, "unit": "%"}
    ]},
    {"compound": "casein [reference compound]", "values": [
      {"measurement": "PMN migration across Transwell filters", "setting": "[4]", "value": "significant at all time points beginning at 30 minutes"}
    ]}
  ]
}
